Measured values from patent US20020131953A1, “In situ langerhans cell vaccine” (UT SOUTHWESTERN MEDICAL CENTER, priority 2001, published 2002).

Assays:
Spleen DC = test: In vitro Transwell migration of spleen DC toward chemokine; assay type: cell-based, BALB/c mice; settings: for % specific migration: spleen cell migration, transwell, 2 hr incubation at 37° C.
Procedure: (§1) Several chemokines were tested in an in vitro transwell system for their ability to promote migration of mature DC, including MIP-1α, MIP-1γ, MCP-3, RANTES and MIP-3β. In vitro cell migration assays were performed by using 6.5 mm Transwell units (Costar, Cambridge, Mass.). Spleen DC or T cells prepared from BALB/c mice were placed in the upper chamber of the transwell system and chemokine (e.g., MIP-3β) was added to the lower chamber of the transwell system. After 2 hr incubation at 37° C., the migratory cells were harvested from the lower chambers, and the % DC (or T cell) migration was calculated by dividing the output CD11c^+ (or CD3^+) cells by the input CD11c^+ (or CD3^+) cells.

T cells = test: In vitro Transwell migration of T cells toward chemokine; assay type: cell-based, BALB/c mice; settings: relative to mature DCs (FIG. 1a)
Procedure: as §1

T cell migration = test: Biological activity of MIP-3β released from EVA rods (T cell chemotaxis assay); assay type: cell-based; settings: MIP-3β liberated from the EVA polymer, Day 3 samples tested at 33 or 100% (vol/vol)
Procedure: To determine whether the released MIP-3β was biologically active, the same samples as used above were tested at 33 or 100% (vol/vol) for their biological activities to promote T cell migration (FIG. 1e). DNFB-induced LC emigration was examined by counting the numbers of IA^+ and DEC205^+ epidermal cells after whole mount epidermal staining. See Mummert et al., 2000, J. Exp. Med. 192:769-779.

Langerhans cells (LC) = test: LC entrapment after subcutaneous rod implantation and DNFB painting; assay type: in vivo, BALB/c mice; settings: 24 hours after DNFB painting over BSA rod implantation sites
Procedure: After 24 hr pre-incubation in PBS at 37° C., a MIP-3β or BSA rod was cut into 4 short pieces (2.5 mm length) and implanted subcutaneously into a mouse with 200 μl of PBS using a 20G1/2 needle.
In an attempt to induce LC maturation and elevate MIP-3β responsiveness, DNFB was applied over the implantation sites.

Row | Molecule | % specific migration (Spleen DC) [%] | also measured
1 | monocyte chemotactic protein-3 [MCP-3] | 18.2 | –
2 | MIP-3β | 13.2 | concentrations promoting migration of mature DCs (Spleen DC; chemokine in lower chamber (FIG. 1a)): 3 to 10 ng/mL; potency in promoting migration of CD11c-positive splenic dendritic cell fractions (Spleen DC; compared among the chemokines tested): most potent; concentrations required for recruiting T cells (T cells): much higher concentrations were required; biological activity in the chemotaxis assay (T cell migration): significant biological activities
3 | O=[N+]([O-])c1ccc(F)c([N+](=O)[O-])c1 [DNFB, dinitroflourobenzene] | – | reduction in surface LC densities (Langerhans cells (LC)): 25-30%
4 | MIP-1γ (protein, UniProt P51670 22-122, looked up, chemokine tested for promoting migration of mature DC) C-C motif chemokine 9: QITHATETKEVQSSLKAQQGLEIEMFHMGFQDSSDCCLSYNSRIQCSRFIGYFPTSGGCTRPGIIFISKRGFQVCANPSDRRVQRCIERLEQNSQPRTYKQ | 5.4 | –
5 | MIP-1α (protein, UniProt P10147 24-92, looked up, chemokine tested for promoting migration of mature DC) C-C motif chemokine 3: SLAADTPTACCFSYTSRQIPQNFIADYFETSSQCSKPGVIFLTKRSRQVCADPSEEWVQKYVSDLELSA | 8.2 | –
6 | RANTES (protein, UniProt P13501 24-91, looked up, chemokine tested for promoting migration of mature DC) C-C motif chemokine 5: SPYSSDTTPCCFAYIARPLPRAHIKEYFYTSGKCSNPAVVFVTRKNRQVCANPEKKWVREYINSLEMS | 9.1 | –
